Like-named read-outs stand apart in the source and are kept apart here.
Assays:
[1] = system: MCF-7 breast cancer cells; assay: Pharmacodynamic experiment in mouse models of human breast cancer (MCF-7 tumors); format: in vivo, NOD/SCID female mice; settings: dose 10 mg/kg, once-daily oral gavage
Description: MCF-7 breast cancer cells were cultured in MEM medium containing 10% FBS, 0.01 mM NEAA, and 10 µg/mL insulin. MCF-7 cells in the exponential growth phase were collected and resuspended in PBS to a suitable concentration for subcutaneous injection into mice. The experimental animals were NOD/SCID female mice (purchased from GemPharmatech Co. Itd, Jiangsu). Before inoculation of tumor cells, a 0.36 mg/60-day slow-release estrogen tablet (17β-estradiol, Innovative Research of America, Sarasota, Florida, USA) was subcutaneously implanted on the right side of the back of the experimental animals. The day after estrogen tablet implantation, 2×10^7 MCF-7 cells were inoculated into the right mammary fatty pad of the experimental mice, wherein the cells were resuspended in PBS and Matrigel (1:1) (0.2 mL/mouse). The tumor growth was regularly observed.
When the tumors in the tumor-bearing mice grew to an average volume of approximately 245.56 mm^3, they were randomly grouped for administration based on tumor size. Grouping was performed using StudyDirector™ (version 3.1.399.19, supplier Studylog System, Inc., S. San Francisco, CA, USA). […]
After starting drug administration, the body weight and tumor size of mice were measured twice a week. […] The raw data were directly imported into the software after being measured using a balance and vernier caliper. […]

[2] = Pharmacokinetics in female ICR mice; settings: female, ICR, mouse, plasma, po, 3 mg/kg; for AUC(0-inf): AUCinf (μg*h/mL), oral administration 3 mg/kg, female ICR mice
Description: Pharmacokinetic experimental steps: A suitable amount of compound to be administered was weighed, and after the final volume required was calculated, a drug solution with corresponding concentration was prepared using the medium (DMSO/HS-15/Tween 80/D5W (5:5:2:88, v/v/v/v)). For intravenous administration, each drug was administered to 9 animals (female ICR mice, provided by Chengdu Dossy Experimental Animal Co., Ltd.) at a dose of 1 mg/kg (drug volume of 10 mL/kg, drug concentration of 0.1 mg/mL). After administration, samples were alternately collected from three animals of each group at time points of 5 min, 15 min, 30 min, 1 h, 2 h, 4 h, 8 h, 12 h, and 24 h. For oral gavage, each drug was administered to 9 animals (female ICR mice) at a dose of 3 mg/kg (drug volume of 10 mL/kg, drug concentration of 0.3 mg/mL). After administration, samples are alternately collected from three animals of each group at time points of 15 min, 30 min, 1 h, 2 h, 4 h, 6 h, 8 h, 12 h, and 24 h. The samples were anticoagulated with EDTA-K2 and centrifuged at 4° C. for 5 min to separate the plasma. The plasma samples were vortexed and mixed. A suitable amount of internal standard working solution was added to the 96-well plate containing samples used for plotting standard curve, samples used for quality control, or samples to be tested; A suitable amount of methanol was added to the blank sample, vortexed and mixed thoroughly, and then centrifuged for 15 min before the supernatant was collected and injected to LC-MS/MS for analysis. The plasma concentration at each time point was used to calculate the main pharmacokinetic parameters using the Winnolin 8.3 non-compartmental model.

[3] = biological target: T1, ER (Homo sapiens, UniProt P03372); assay: Degradation activities on ER (ELISA) in T47D breast cancer cells; format: cell-based; settings: T47D cells, 24 h, ELISA; for Dmax: maximum percentage of target protein degraded
T1 construct: T47D breast cancer cells were subcultured in cell culture medium; endogenous in cells; host or cells: T47D breast cancer cells
T1 sequence (P03372 1-595): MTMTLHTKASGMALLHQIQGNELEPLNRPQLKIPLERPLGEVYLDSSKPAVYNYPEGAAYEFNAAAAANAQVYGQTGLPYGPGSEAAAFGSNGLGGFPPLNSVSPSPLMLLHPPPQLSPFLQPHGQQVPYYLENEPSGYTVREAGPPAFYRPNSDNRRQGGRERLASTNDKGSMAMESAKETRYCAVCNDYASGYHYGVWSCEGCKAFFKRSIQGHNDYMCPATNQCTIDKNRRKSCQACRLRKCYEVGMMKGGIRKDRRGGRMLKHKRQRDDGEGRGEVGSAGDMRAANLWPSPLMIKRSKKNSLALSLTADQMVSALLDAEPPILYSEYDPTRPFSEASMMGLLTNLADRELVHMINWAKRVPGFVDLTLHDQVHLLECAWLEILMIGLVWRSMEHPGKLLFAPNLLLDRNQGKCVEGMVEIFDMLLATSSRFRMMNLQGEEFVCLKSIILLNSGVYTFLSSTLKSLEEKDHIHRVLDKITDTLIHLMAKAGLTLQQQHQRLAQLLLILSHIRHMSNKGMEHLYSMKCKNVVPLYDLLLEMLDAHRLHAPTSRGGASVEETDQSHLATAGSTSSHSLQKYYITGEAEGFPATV
Procedure, shortened: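 Cellular ER degradation ELISA: compound dosed 24 h on T47D cells (2.5×10^4/well, pre-grown 3 days) at six final levels from 100 nM downward. Remaining ER was detected by HRP-TMB absorbance at 450 nm. Dose-response fitting gave DC50 and Dmax, the maximal percentage degraded.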

[4] = biological target: T1, ER; assay: Degradation activities on ER (Western blotting) in T47D breast cancer cells; format: cell-based; settings: 24 h, Western blot
Procedure, shortened: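 T47D cells seeded 2.5×10^5/well, grown overnight, then treated 24 hours with compound (0.1% DMSO) in duplicate. ERα level measured by Western blot of 30 μg lysate protein, with GAPDH as loading control and ECL chemiluminescence detection.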

[5] = system: MCF-7 breast cancer cells; assay: Inhibition of proliferation of MCF-7 breast cancer cells (agarose culture, CellTiter-Glo 3D); format: cell-based; settings: MCF-7 cells, 15 days of cultivation, read-out: IC50

half-life [2]	AUC(0-inf) [2]	Dmax ([3]; read-out: Dmax)	Percentage reduction of ER ([4]; compound concentration 10 nM)	IC50 ([5]; Homo sapiens, MCF7, 360 h)	DC50 ([3]; concentration required to degrade 50% of the target protein)	Dmax [3]	Percentage reduction of ER ([4]; compound concentration 1 nM)	IC50 [5]	Structure (SMILES)	TGI (tumor growth inhibition) ([1]; day 28)	average tumor volume ([1]; end of experiment (day 28))
2.3 h	1300 ng·h/mL								O=C1CCC(N2Cc3cc(N4CCN(CC5CCN(c6ccc([C@@H]7c8ccc(O)cc8CC[C@@H]7c7ccccc7)cc6)CC5)CC4)ccc3C2=O)C(=O)N1 (stereo partly drawn) [Control compound X, reference compound]	29%	362 mm^3
> 3.5 h	> 2500 ng·h/mL	50 to 75%	51%	< 10 nM					O=C1CCC(N2Cc3cc(N4CC5(CCN(CC6CCN(c7ccc([C@@H]8c9ccc(O)cc9OC[C@@H]8c8c(F)cccc8F)cc7)CC6)CC5)C4)ccc3C2=O)C(=O)N1 (stereo partly drawn) [Example 63, 3-(5-(7-((1-(4-(3-(2,6-difluorophenyl)-7-hydroxyl-chroman-4-yl)phenyl)piperidin-4-yl)methyl)-2,7-diazaspiro[3.5]nonane-2-yl)-1-oxoisoinodolin-2-yl)piperidin-2,6-dione]		
> 3.5 h	1400 to 2500 ng·h/mL				< 10 nM	B (B: 75-50%)	52%	< 10 nM	O=C1CCC(N2Cc3cc(N4CC5(CCN(CC6CCN(c7ccc([C@@H]8c9ccc(O)cc9OC[C@@H]8c8ccccc8F)cc7)CC6)CC5)C4)ccc3C2=O)C(=O)N1 (stereo partly drawn) [Example 89, 3-(5-(7-((1-(4-((3S, 4R)-3-(2-fluorophenyl)-7-hydroxychroman-4-yl)phenyl)piperidin-4-yl)methyl)-2,7-diazaspiro[3.5]nonane-2-yl)-1-oxoisoinodolin-2-yl)piperidin-2,6-dione]		

From patent US20260258039A1, “AROMATIC COMPOUND, METHOD FOR PREPARING SAME, AND USE THEREOF IN PREPARATION OF ESTROGEN RECEPTOR DEGRADER” (Hinova Pharmaceuticals Inc., priority 2022, published 2026)
